Test results: paper PMC548150, “Reversal of a full-length mutant huntingtin neuronal cell phenotype by chemical inhibitors of polyglutamine-mediated aggregation” (BMC Neuroscience, 2005)
Values joined by “and” are separate entries in the source; they are usually repeats but may differ in a detail not shown here. Identical values can stand only once. “Also recorded” adds a separate entry of the source. Like-named read-outs stand apart in the source and are kept apart here.

Experiments:
[1] = biological target: T1, Q58-htn 1–171 amino terminal fragment (GST-Q58-Htn cleaved by thrombin) (Homo sapiens, UniProt P42858, INS38QQQQQQQQQQQQQQQQQQQQQQQQQQQQQQQQQQQQQ); experiment: in vitro aggregation of amino-terminal mutant huntingtin fragment (filter retardation dot blot); type: biochemical
T1 construct: the amino terminal fragment 1–171 of mutant huntingtin; GST (N, cleaved yes); made in house; host or cells: E. coli BL21 (pGEX-2TK vector)
Protocol: In our primary screen (Figure 1A), GST-Q58-Htn (20 μg/ml) was mixed with thrombin (0.5 unit/μg GST-Q58-Htn) and immediately dispensed into a 96-well PCR plate containing compounds diluted to a final concentration of 100 μM. Incubation was continued for 24 hours at room temperature to allow aggregate formation. The aggregation was stopped by 2% SDS/10 mM 2-mercaptoethanol followed by boiling for 5 minutes. The mixture was filtered through a cellulose acetate membrane by using a 96-well ELIFA dot blot apparatus. The aggregates retained on the membrane were detected and quantified by immunoblotting and subsequent image analysis. Congo Red, a known huntingtin aggregation inhibitor, was used as the positive control.
A recombinant pGEX-2TK expression vector with cDNA fragment encoding amino terminal 171 amino acids of human huntingtin with a polyglutamine tract of 58 was used to prepare the GST-Q58-htn fusion protein. The GST-Q58-htn was overexpressed in BL21 cells and purified by affinity chromatography over glutathione-sepharose 4B beads (Amersham Pharmacia Biotech). The purified proteins were stored at concentration of 2.0 mg/ml at -80°C.
For primary screening of the chemical library, 1 μl of 4.0 mM small compound stock, diluted from the original plates, was placed in wells of 96-well plates. The fusion protein, GST-Q58-Htn was mixed with thrombin (0.5 unit/1 μg protein) at a concentration of 20 μg/ml in a buffer of 50 mM Tris-HCl, pH 8.0, 100 mM NaCl, 2.5 mM CaCl2, 1.0 mM EDTA. The mixture was immediately distributed into the 96-well plates containing diluted compounds at 40 μl/well and mixed well. The final concentration of the small compounds was 100 μM. After 24 hours incubation at room temperature, the reaction was stopped by adding 10 μl of 10% SDS/50 mM 2-mercaptoethanol to each well followed by boiling in a PCR machine for 5 minutes. The mixture from each well was filtered through a cellulose acetate membrane ((0.2 μm, GE Osmonics labstore, Minnetonka MN) by using a 96-well ELIFA (Pierce Biotech). The aggregates retained on the membrane were detected by a specific anti-huntingtin antibody, HP1 (diluted 1:1000), followed by incubation with peroxidase conjugated anti-rabbit antibody (diluted 1:10,000, Sigma). Signals from SDS insoluble aggregates were scanned and quantified by using ImageMaster Totalab image analysis software (Amersham Pharmacia Biotech). In the secondary screening, all steps were the same except the final concentration of compound in each well was reduced to 10 μM and the GST-Q58-Htn/thrombin mixture was preincubated for 45-minutes at room temperature and clarified by centrifugation at 28,000 × g for 30 minutes before being added to the test wells. For IC50 determinations, the in vitro aggregation assay and signal quantification were performed as in the second screening but varying the final concentration of input drug. The data for each inhibitor were obtained from at least two independent experiments in which every sample was analyzed in triplicate with Prism 3.0 software (Graphpad Software, Inc., San Diego, CA).

[2] = system: ST111/111 striatal cells (Hdh^Q111/Q111, full-length mutant huntingtin); experiment: striatal cell line assay: huntingtin localization phenotype (AP229 immunostaining, confocal); type: cell-based, mouse; details: for Percentage of ST111/111 cells showing cytoplasmic/nuclear huntingtin localization comparable to wild-type ST7/7 cells: 30 min at 33°C, mean ± SD of 5–10 fields; for reversal of the mutant huntingtin localization phenotype (in words): 0.5–50 μM tested
From the text: To test the hypothesis that compounds, which inhibit the aggregation-promoting property of amino-terminal mutant huntingtin will also rescue effects of full-length mutant huntingtin, we tested the top six inhibitors in a striatal cell-based assay. Mutant Hdh^Q111/Q111 and wild-type Hdh^Q7/Q7 striatal cell lines, […], which have been prepared by transformation with a tsSV40 vector, can be propagated in culture and used for cytological and biochemical comparisons. These cells express full-length mutant or wild-type huntingtin, respectively, with no evidence of truncated amino-terminal fragments, no formation of polyglutamine aggregates and no cell death-producing toxicity. However, like the striatal neurons of Hdh^Q111/Q111 knock-in mice, the ST111/111 cells show nuclear staining of huntingtin when tested with an amino-terminal huntingtin antibody that is sensitive to the conformation of the full-length protein (Figure 5A). By contrast, ST7/7 cells expressing wild type huntingtin show both nuclear and cytoplasmic immunostaining with the same huntingtin antibody (Figure 5A).
Conditionally immortalized wild-type Hdh^Q7/Q7 striatal neuronal progenitor cells (ST7/7) expressing endogenous normal huntingtin, and homozygous Hdh^Q111/Q111 striatal neuronal progenitor cells (ST111/111), expressing endogenous mutant huntingtin with 111-glutamines, have been described previously. The striatal cell lines were grown at 33°C in Dulbecco's modified Eagle's medium (DMEM) supplemented with 10 % fetal bovine serum (FBS), 1% nonessential aminoacids, 2 mM L-glutamine and 400 μg/ml G418 (Geneticin (GIBCO-BRL, Life Technologies, Gaithersburg, MD).
(§1) In the immunofluorescence and confocal analysis experiment, wild-type ST7/7 and homozygous mutant ST111/111 cells, grown to confluence on glass coverslips, were treated with 6 different drugs at four different concentrations (0.5, 5, 10 or 50 μM) for 30 min at 33°C. After the treatment the drugs were removed and the cells washed twice in PBS. The cells were then fixed by incubation in 4% formaldehyde for 15 min, permeabilized by 0.1% Triton X-100 for 5 min and incubated for 30 min with blocking solution (1% bovine albumin in PBS). Coverslips were then incubated in primary antibody (AP229 1:500 dilution) for 2 h at room temperature and washed three times in PBS before a further 1 h in blocking solution containing the secondary antibody (goat anti-rabbit Cy3, Jackson ImmunoResearch, West Grove, PA. USA). After three washes in PBS coverslips were mounted onto glass slides with Vectashield (Burlingame, CA. USA) and the images were analyzed with a laser confocal microscope (Bio-Rad, Hercules, CA. USA) using 20 × objective. Cell death was quantified by scoring the percentage of cells with apoptotic nuclear morphology, i.e. condensed or fragmented nuclei, under the confocal microscope. In each case five to ten randomly selected fields were counted, comprising at least 200 cells, and each experiment was repeated 3 times.

[3] = system: HEK 293T cells expressing androgen receptor with 112 glutamines; details: cited from earlier work
ST111/111 striatal cells = type: cell-based; details: for percentage of dead cells: mouse, 30 min
Protocol: as §1, with “After” for “In the immunofluorescence and confocal analysis experiment, wild-type ST7/7 and homozygous mutant ST111/111 cells, grown to confluence on glass coverslips, were treated with 6 different drugs at four different concentrations (0.5, 5, 10 or 50 μM) for 30 min at 33°C. After”

[4] = system: hippocampal slice cultures from the R6/2 mouse; design: method as in PMID 12891671; details: 30 μM; cited from earlier work
[5] = GST-Q58-Htn 20 μg/ml pre-incubated with thrombin, 24 h room temperature, average of at least two independent experiments, read-out: IC50 (half-maximal inhibition) of Q58-Htn aggregation

T1 sequence (P42858 with tags, fused parts or gaps with the stated changes limits assumed): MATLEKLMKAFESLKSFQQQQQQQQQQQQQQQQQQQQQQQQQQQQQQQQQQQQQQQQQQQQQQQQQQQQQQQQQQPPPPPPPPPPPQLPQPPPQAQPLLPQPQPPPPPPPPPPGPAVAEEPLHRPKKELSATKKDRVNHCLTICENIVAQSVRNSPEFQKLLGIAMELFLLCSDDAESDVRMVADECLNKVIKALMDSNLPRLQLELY

Compound	IC50 [1, 5]	Percentage of ST111/111 cells showing cytoplasmic/nuclear huntingtin localization comparable to wild-type ST7/7 cells ([2]; 0.5 μM) [%]	Percentage of ST111/111 cells showing cytoplasmic/nuclear huntingtin localization comparable to wild-type ST7/7 cells ([2]; 5 μM) [%]	Percentage of ST111/111 cells showing cytoplasmic/nuclear huntingtin localization comparable to wild-type ST7/7 cells ([2]; 10 μM)	reversal of the mutant huntingtin localization phenotype (in words) [2]	also measured
O=C1c2c(O)cccc2Cc2cccc(O)c21 [Anthralin]	< 15 µM and 10.5 µM	4.6 ± 7.6	6.6 ± 9.7	9.6 ± 12.1%	little effect; also recorded: not effective	Percentage of ST111/111 cells showing cytoplasmic/nuclear huntingtin localization comparable to wild-type ST7/7 cells ([2]; 50 μM): 11.8 ± 14.4%
Nc1c(/N=N/c2ccc(-c3ccc(/N=N/c4cc(S(=O)(=O)O)c5ccccc5c4N)cc3)cc2)cc(S(=O)(=O)O)c2ccccc12 [Congo Red]	–	–	–	–	–	inhibition of Q58-Htn aggregation ([1]; 10 μM, positive control): completely inhibit
CC(C)=CCC[C@]1(C)C=Cc2c(O)c3c(c(CC=C(C)C)c2O1)O[C@]12C(=C[C@@H]4C[C@H]1C(C)(C)O[C@@]2(C/C=C(/C)C(=O)O)C4=O)C3=O [Gambogic acid]	< 6 µM and < 15 µM and 0.87 µM	1 ± 2.6	0	–	not effective	residual aggregate formed ([1]; at the maximum concentration of the dose response (0.01 μM to 500 μM)): approximately 20%; effect on caspase 3 activation [3]: blocked caspase 3 activation; toxicity in the HEK 293T assay [3]: showed toxicity
Cc1cc2c(C(C)C)c(O)c(O)c(C=O)c2c(O)c1-c1c(C)cc2c(C(C)C)c(O)c(O)c(C=O)c2c1O [Gossypol-acetic acid]	–	0	4.5 ± 4.3	3.5 ± 3.5%	not effective	IC50 [1]: < 6 µM and < 15 µM and 0.65 µM; Percentage of ST111/111 cells showing cytoplasmic/nuclear huntingtin localization comparable to wild-type ST7/7 cells ([2]; 50 μM): 15.9 ± 11.1%; Percentage of ST111/111 cells showing cytoplasmic/nuclear huntingtin localization comparable to wild-type ST7/7 cells ([2]; 50 μM, listed as Gossypol acetic acid complex): 15%; reversal of the mutant huntingtin localization phenotype (in words) ([2]; listed as Gossypol acetic acid complex): less effective; cell toxicity (in words) (ST111/111 striatal cells; tested up to 50 μM): no toxicity
O=C1C=CC(=O)c2c(O)cccc21 [Juglone]	< 6 µM and < 15 µM and 2.67 µM	10.4 ± 12.4	37.9 ± 19.9	68% and 68.8 ± 18.4%	reversed the mutant phenotype in a dose-dependent manner; also recorded: effective	–
C=C1c2c(Cl)ccc(O)c2C(=O)C2=C(O)[C@]3(O)C(=O)C(C(N)=O)=C(O)[C@@H](N(C)C)[C@@H]3[C@@H](O)[C@H]12 [Meclocycline sulfosalicylate]	14.8 µM	–	–	–	–	–
N=C1C=CC(=C(c2ccc(N)cc2)c2ccc(N)cc2)C=C1 [Pararosaniline pamoate]	14.9 µM	–	–	–	–	–
C[n+]1cc2c3c(ccc2c2ccc4cc5c(cc4c21)OCO5)OCO3 [Sanguinarine nitrate]	< 6 µM and < 15 µM and 5.7 µM	0	3.7 ± 5.2	0%	little effect	reversal of the mutant huntingtin localization phenotype (in words) ([2]; listed as sanguinarine): not effective; percentage of dead cells (ST111/111 striatal cells; 0.5 μM): 4.3%; percentage of dead cells (ST111/111 striatal cells; 5 μM): 5.5%; percentage of dead cells (ST111/111 striatal cells; 10 μM): 22.5%; effect on caspase 3 activation [3]: blocked caspase 3 activation
CO[C@H]1C[C@H](O[C@@H]2/C(C)=C/C[C@@H]3C[C@@H](C[C@]4(CC[C@H](C)[C@@H](C5CCCCC5)O4)O3)OC(=O)[C@@H]3C=C(C)/C(=N/O)[C@H]4OC/C(=C\C=C\[C@@H]2C)[C@]43O)O[C@@H](C)[C@@H]1O [Selamectin]	–	–	–	–	–	IC50 [1]: 12.4 µM
CN(C)c1ccc(O)c2c1C[C@H]1C[C@H]3[C@H](N(C)C)C(O)=C(C(N)=O)C(=O)[C@@]3(O)C(O)=C1C2=O [minocycline]	43 µM	–	–	–	–	effect on huntingtin exon 1 aggregation [4]: inhibitory effect
Tyrothricin	14.7 µM	–	–	–	–	effect on caspase 3 activation [3]: blocked caspase 3 activation; toxicity in the HEK 293T assay [3]: showed toxicity
